According to patent publication US20250388542A1, “ANALOGUES OF PENTAMIDINE AND USES THEREFOR” (Auransa Inc., priority 2018, published 2025):
“Also recorded” adds a separate entry of the source.

Columns and labels:
NCI-H209 = assay: CellTiter-Glo luminescent cell viability assay; type: cell-based; settings: Homo sapiens
Procedure: (§1) The objective of this study is to investigate potential cell killing effect of Compounds 1-15 on 3 cancer cell lines. 50% inhibition concentration (IC50) was determined for these compounds in various cancer cell lines using CellTiter-Glo™ luminescent cell viability assay at different compound concentrations. Each cell line (e.g., NCI-H209; NCI-H69; and SW1271) was treated with Compounds 1-15 and culture medium contains 0.2% [v/v] DMSO vehicle control. All the cells were cultured in the media supplemented with 10-20% fetal bovine serum at 37° C., 5% CO2 and 95% humidity.

NCI-H69 = assay: CellTiter-Glo luminescent cell viability assay; type: cell-based; settings: Homo sapiens
Procedure: as §1

Hep3B-luc = assay: CellTiter-Glo cell viability, liver cell lines, 8 days; type: cell-based; settings: Hep 3B-Luc, 192 h, full growth media
Procedure: (§2) The objective of this study is to investigate the effect of Compound 1 on cell viability of various types of liver cancer. Ten (10) different liver cancer cell lines were employed in the study. Each liver cell line shown in Table 4 was treated with Compound 1, pentamidine, as reference control, a standard of care (cisplatin) and culture medium contains 0.2% [v/v] DMSO vehicle control and IC50 values were obtained as described above. The raw data values from the CellTiter-Glo™ cell viability assay expressed in relative luminescence units were normalized to the vehicle for each individual plate, and any reduction in luminescence indicated a decrease in viability (%). The data was analyzed in GraphPad PRISM using a non-linear sigmoidal plot with variable slope (asymmetric four-point linear regression), and an IC50 value for each compound was generated. The experiment tested pentamidine, compound 1, and standard-of-care control Cisplatin in full growth media for 8 days. Cells were initially treated with the test compounds on Day 0, and the cells were then replenished with fresh compound dilutions on Day 3. Pentamidine, Compound 1, and cisplatin were tested at 9 concentration points; 100, 33.33, 11.11, 3.70, 1.23, 0.41, 0.14, 0.05, and 0.02 μM (final DMSO concentration=0.5%). In particular, the IC50 values of pentamidine and Compound 1 were 0.8 and 0.6 μM in Hep3B-luc, respectively.
The experiment tested pentamidine, Compound 1, and standard of care control, cisplatin, in full growth media for 8 days. Hep-3b cells were initially treated with the test compounds on Day 0, and the cells were then replenished with fresh compound dilutions on Day 3. […] The raw data values from the CellTiter-Glo™ cell viability assay expressed in relative luminescence units were normalized to the vehicle for each individual plate, and any reduction in luminescence indicated a decrease in viability (%). The data was analyzed in GraphPad PRISM using a non-linear sigmoidal plot with variable slope (asymmetric four-point linear regression), and an IC50 value for each compound was generated. […]

HCCLM3 = assay: as above; type: cell-based; settings: Homo sapiens, 192 h; HCCLM3, 8 days
Procedure: as §2

HEP3B2.7-1 = assay: as above; type: cell-based; settings: HEP3B2.7-1, Table 4
Procedure: as §2

HUH1 = assay: as above; type: cell-based; settings: Homo sapiens, HuH-1, 192 h; HUH1, 8 days
Procedure: as §2

HUH7 = assay: as above; type: cell-based; settings: Homo sapiens, Huh-7, 192 h; HUH7, 8 days
Procedure: as §2

SK-HEP-1 = assay: as above; type: cell-based; settings: Homo sapiens
Procedure: as §2

[1] = test system: COLO 205-Luc colon cancer tumor cells; assay: Colon orthotopic in vivo study; settings: for Body weight (mean ± SEM): in g (unit assumed)
Procedure: Approximately 2.0× Luciferase stably expressing colon cancer tumor cells (COLO 205-Luc) cells suspended in 30 μl of DPBS were injected into cecum wall of BALB/c nude mice.
The animals were assigned into groups using an Excel-based randomization software performing stratified randomization based upon their bioluminescence intensity. Treatment was initiated according to the predetermined regimen as shown in the experimental design table.
Mice were administered compound 1 at 10 mg/k daily, 20 mg/kg daily, 10 mg/kg twice daily, 20 mg/kg twice daily, or 40 mg/kg daily.
The major efficacy endpoint was bioluminescence (intensity values and change from baseline). The surgically inoculated mice were weighed and intraperitoneally administered luciferin at a dose of 150 mg/kg. Ten minutes after the luciferin injection, the animals were pre-anesthetized with the mixture gas of oxygen and isoflurane. When the animals were in a complete anesthetic state, the mice were moved into the imaging chamber for bioluminescence measurements with an IVIS (Lumina II) imaging system. The bioluminescence of the whole animal body, including primary and metastatic tumors, was measured and recorded once per week.
Tumor Growth Inhibition (TGI) was calculated for each group using the formula: TGI (%)=[1−(Ti−T0)/(Vi−V0)]×100; Ti is the average tumor bioluminescence value of a treatment group on a given day, T0 is the average tumor bioluminescence value of the treatment group on day 0, Vi is the average tumor bioluminescence value of the vehicle control group on the same day with Ti, and V0 is the average tumor bioluminescence value of the vehicle group on day 0.
For comparison among three or more groups, a one-way ANOVA was performed. When a non-significant F-statistics (a ratio of treatment variance to the error variance) was obtained, comparisons between groups were carried out with Dunnett t(2-sided). All data were analyzed using SPSS 17.0. p<0.05 is considered to be statistically significant.

[2] = 10 mg/kg, BID, day 0 after the start of treatment
[3] = 10 mg/kg, QD, day 0 after the start of treatment
[4] = 20 mg/kg, BID, day 0 after the start of treatment
[5] = 20 mg/kg, QD, day 0 after the start of treatment
[6] = 40 mg/kg, QD, day 0 after the start of treatment

## N=C(N)c1ccc(OCCCCCOc2ccc(C(=N)N)nc2)cc1 [Compound 1, 5-(5-(4-carbamimidoylphenoxy)pentyloxy)picolinimidamide]
NCI-H209
  IC50: 1700 nM
NCI-H69
  IC50: 858 nM
Hep3B-luc
  IC50: 600 nM
HCCLM3
  IC50: 9650 nM
HEP3B2.7-1
  IC50: 320 nM
HUH1
  IC50: 2950 nM
HUH7
  IC50: 530 nM
SK-HEP-1; SK-HEP1, SK-HEP-1, first listing in Table 4
  IC50: 1400 nM
SK-HEP-1; SK-HEP1, SK-HEP-1, second listing in Table 4
  IC50: 630 nM
[1]; [2]
  Relative bioluminescence (mean ± SEM): 100 ± 0%
  Body weight (mean ± SEM): 21.0 ± 0.4
[1]; 10 mg/kg, BID, day 3
  Body weight (mean ± SEM): 21.2 ± 0.4
[1]; 10 mg/kg, BID, day 7
  Relative bioluminescence (mean ± SEM): 447 ± 103%
  Body weight (mean ± SEM): 21.2 ± 0.4
[1]; 10 mg/kg, BID, day 10
  Body weight (mean ± SEM): 21.2 ± 0.3
[1]; 10 mg/kg, BID, day 14
  Relative bioluminescence (mean ± SEM): 1033 ± 385%
  Body weight (mean ± SEM): 21.8 ± 0.4
[1]; 10 mg/kg, BID, day 17
  Body weight (mean ± SEM): 22.1 ± 0.4
[1]; 10 mg/kg, BID, day 22
  Relative bioluminescence (mean ± SEM): 2993 ± 1325%
  Body weight (mean ± SEM): 21.2 ± 0.4
[1]; 10 mg/kg, BID, day 24
  Body weight (mean ± SEM): 21.5 ± 0.3
[1]; 10 mg/kg, BID, day 28
  Relative bioluminescence (mean ± SEM): 2715 ± 950%
  Body weight (mean ± SEM): 22.0 ± 0.3
[1]; [3]
  Relative bioluminescence (mean ± SEM): 100 ± 0%
  Body weight (mean ± SEM): 20.9 ± 0.5
[1]; 10 mg/kg, QD, day 3
  Body weight (mean ± SEM): 21.4 ± 0.5
[1]; 10 mg/kg, QD, day 7
  Relative bioluminescence (mean ± SEM): 351 ± 88%
  Body weight (mean ± SEM): 21.6 ± 0.5
[1]; 10 mg/kg, QD, day 10
  Body weight (mean ± SEM): 21.5 ± 0.4
[1]; 10 mg/kg, QD, day 14
  Relative bioluminescence (mean ± SEM): 1425 ± 930%
  Body weight (mean ± SEM): 21.7 ± 0.4
[1]; 10 mg/kg, QD, day 17
  Body weight (mean ± SEM): 21.7 ± 0.4
[1]; 10 mg/kg, QD, day 22
  Relative bioluminescence (mean ± SEM): 2819 ± 1388%
  Body weight (mean ± SEM): 21.7 ± 0.5
[1]; 10 mg/kg, QD, day 24
  Body weight (mean ± SEM): 22.2 ± 0.6
[1]; 10 mg/kg, QD, day 28
  Relative bioluminescence (mean ± SEM): 3171 ± 1602%
  Body weight (mean ± SEM): 22.6 ± 0.5
[1]; 20 mg/kg or 40 mg/kg daily
  reducing tumor growth: non-statistically significant trend
[1]; [4]
  Relative bioluminescence (mean ± SEM): 100 ± 0%
  Body weight (mean ± SEM): 20.9 ± 0.5
[1]; 20 mg/kg, BID, day 3
  Body weight (mean ± SEM): 20.9 ± 0.5
[1]; 20 mg/kg, BID, day 7
  Relative bioluminescence (mean ± SEM): 299 ± 91%
  Body weight (mean ± SEM): 21.1 ± 0.5
[1]; 20 mg/kg, BID, day 10
  Body weight (mean ± SEM): 21.1 ± 0.5
[1]; 20 mg/kg, BID, day 14
  Relative bioluminescence (mean ± SEM): 1108 ± 433%
  Body weight (mean ± SEM): 21.5 ± 0.6
[1]; 20 mg/kg, BID, day 17
  Body weight (mean ± SEM): 21.6 ± 0.6
[1]; 20 mg/kg, BID, day 22
  Relative bioluminescence (mean ± SEM): 2340 ± 1230%
  Body weight (mean ± SEM): 20.9 ± 0.5
[1]; 20 mg/kg, BID, day 24
  Body weight (mean ± SEM): 21.3 ± 0.5
[1]; 20 mg/kg, BID, day 28
  Relative bioluminescence (mean ± SEM): 1877 ± 1076%
  Body weight (mean ± SEM): 21.7 ± 0.5
[1]; [5]
  Relative bioluminescence (mean ± SEM): 100 ± 0%
  Body weight (mean ± SEM): 20.8 ± 0.4
[1]; 20 mg/kg, QD, day 3
  Body weight (mean ± SEM): 20.8 ± 0.3
[1]; 20 mg/kg, QD, day 7
  Relative bioluminescence (mean ± SEM): 171 ± 46%
  Body weight (mean ± SEM): 20.8 ± 0.4
[1]; 20 mg/kg, QD, day 10
  Body weight (mean ± SEM): 21.0 ± 0.3
[1]; 20 mg/kg, QD, day 14
  Relative bioluminescence (mean ± SEM): 817 ± 269%
  Body weight (mean ± SEM): 21.2 ± 0.3
[1]; 20 mg/kg, QD, day 17
  Body weight (mean ± SEM): 21.3 ± 0.4
[1]; 20 mg/kg, QD, day 22
  Relative bioluminescence (mean ± SEM): 923 ± 354%
  Body weight (mean ± SEM): 21.1 ± 0.4
[1]; 20 mg/kg, QD, day 24
  Body weight (mean ± SEM): 21.6 ± 0.3
[1]; 20 mg/kg, QD, day 28
  Relative bioluminescence (mean ± SEM): 1613 ± 1022%
  Body weight (mean ± SEM): 21.5 ± 0.4
[1]; [6]
  Relative bioluminescence (mean ± SEM): 100 ± 0%
  Body weight (mean ± SEM): 20.7 ± 0.5
[1]; 40 mg/kg, QD, day 3
  Body weight (mean ± SEM): 20.7 ± 0.5
[1]; 40 mg/kg, QD, day 7
  Relative bioluminescence (mean ± SEM): 210 ± 57%
  Body weight (mean ± SEM): 20.2 ± 0.4
[1]; 40 mg/kg, QD, day 10
  Body weight (mean ± SEM): 20.3 ± 0.5
[1]; 40 mg/kg, QD, day 14
  Relative bioluminescence (mean ± SEM): 357 ± 109%
  Body weight (mean ± SEM): 20.5 ± 0.5
[1]; 40 mg/kg, QD, day 17
  Body weight (mean ± SEM): 20.5 ± 0.5
[1]; 40 mg/kg, QD, day 22
  Relative bioluminescence (mean ± SEM): 525 ± 145%
  Body weight (mean ± SEM): 20.4 ± 0.5
[1]; 40 mg/kg, QD, day 24
  Body weight (mean ± SEM): 21.0 ± 0.5
[1]; 40 mg/kg, QD, day 28
  Relative bioluminescence (mean ± SEM): 512 ± 206%
  Body weight (mean ± SEM): 21.3 ± 0.5
[1]; all dose groups 10-40 mg/kg QD, 10-20 mg/kg BID
  body weight loss as indirect measure of toxicity: No groups lost weight obviously
[1]; tumor-bearing BALB/c nude mice, all dose groups
  toxicity / tolerability: no obvious toxicity; also recorded: does not have significant toxicity and is well tolerated
